Patent publication US7291611B2, “Benzimidazolidinone derivatives as muscarinic agents” (ACADIA Pharmaceuticals Inc., priority 2001, dated 2007)

How the values were obtained:
[1] = biological target: T1, M1 muscarinic receptor (Homo sapiens, UniProt P11229); assay: R-SAT functional assay, muscarinic M1 receptor; format: cell-based; settings: for Emax: NIH3T3, relative to maximum response to carbachol, read-out: M1 % Efficacy; for Emax / EC50: R-SAT, transfected NIH-3T3 cells; for EC50: read-out: M1 pEC50 (converted)
T1 construct: expressed in transfected cells; host or cells: NIH-3T3 cells (ATCC CRL 1658)
T1 sequence (P11229 1-460): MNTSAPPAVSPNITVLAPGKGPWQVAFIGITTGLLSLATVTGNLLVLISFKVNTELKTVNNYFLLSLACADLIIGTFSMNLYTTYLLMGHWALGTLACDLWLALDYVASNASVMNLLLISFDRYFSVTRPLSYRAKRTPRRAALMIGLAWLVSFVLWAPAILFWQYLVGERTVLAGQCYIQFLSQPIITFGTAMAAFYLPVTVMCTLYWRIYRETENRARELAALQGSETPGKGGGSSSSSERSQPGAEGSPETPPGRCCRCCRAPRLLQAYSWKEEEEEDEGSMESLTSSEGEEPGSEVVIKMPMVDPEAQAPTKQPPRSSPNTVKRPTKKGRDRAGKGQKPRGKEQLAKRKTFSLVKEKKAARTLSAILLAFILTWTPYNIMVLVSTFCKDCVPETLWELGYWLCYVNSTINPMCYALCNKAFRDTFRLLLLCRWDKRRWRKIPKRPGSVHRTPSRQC
Experimental: (§1) The M1 and M4 muscarinic receptor subtypes were cloned substantially as described by Bonner et al., (1987) Science […] p. 527 and Bonner et al, (1988) Neuron 1, p. 403. R-SAT assays were carried out substantially as described in U.S. Pat. No. 5,707,798 and by Braüner-Osbome, H. B. and Brann, M. R. (1995), Eur. J. Pharmacol. 295:93-102. NIH-3T3 cells (available from the American Type Culture Collection as ATCC CRL 1658) were transfected with plasmid DNA encoding the m1 and m4 receptors and plasmid DNA encoding β-galactosidase. Transfected cells were grown in the presence of between 1 nM and 40 μM of the test compound for 5 days. On day 5, the cells were lysed using 0.5% nonidet-P and β-galactosidase expression was quantified using the chromogenic substrate o-nitrophenyl-p-D-galactoside (ONGP).
(§2) Data were normalized relative to the maximum response of the cells to the muscarinic agonist carbachol, and the following equation was fitted to the data: response=minimum+(maximum−minimum)/(1+([ligand]/EC50)) % Efficacy was defined as (maximum−minimum)/(maximum response of cells to carbachol). pEC50=−log (EC50). Where data gave a bell-shaped curve, “maximum” was defined as the highest observed response.

[2] = biological target: T2, M4 muscarinic receptor (Homo sapiens, UniProt P08173); assay: R-SAT functional assay, muscarinic M4 receptor; format: cell-based; settings: for Emax: NIH3T3, relative to maximum response to carbachol, read-out: M4 % Efficacy; for Emax / EC50: R-SAT, transfected NIH-3T3 cells; for EC50: read-out: M4 pEC50 (converted)
T2 construct: expressed in transfected cells; host or cells: NIH-3T3 cells (ATCC CRL 1658)
T2 sequence (P08173 1-479): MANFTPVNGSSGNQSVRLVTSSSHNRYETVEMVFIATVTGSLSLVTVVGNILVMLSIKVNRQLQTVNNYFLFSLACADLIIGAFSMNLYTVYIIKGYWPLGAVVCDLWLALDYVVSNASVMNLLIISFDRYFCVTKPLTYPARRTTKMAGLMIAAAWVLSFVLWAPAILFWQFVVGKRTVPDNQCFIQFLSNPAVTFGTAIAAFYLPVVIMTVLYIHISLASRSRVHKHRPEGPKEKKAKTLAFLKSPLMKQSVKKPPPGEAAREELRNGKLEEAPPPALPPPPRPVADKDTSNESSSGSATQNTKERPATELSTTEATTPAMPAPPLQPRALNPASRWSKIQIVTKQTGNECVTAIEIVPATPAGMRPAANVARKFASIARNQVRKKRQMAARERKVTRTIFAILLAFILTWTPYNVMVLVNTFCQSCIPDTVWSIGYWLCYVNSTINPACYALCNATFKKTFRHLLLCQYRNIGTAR
Experimental: as §1, §2

[3] = biological target: T3, human dopamine D2 receptor (Homo sapiens, UniProt P14416); assay: [3H]-Spiperone radioligand binding to D2 receptor membranes; settings: tSA cell membranes, 150 pM [3H]-Spiperone; read-out: D2 [3H]Spiperone pIC50 (converted)
T3 construct: expressed in transfected cells; host or cells: tSA cells
T3 sequence (P14416 1-414 isoform P14416-2): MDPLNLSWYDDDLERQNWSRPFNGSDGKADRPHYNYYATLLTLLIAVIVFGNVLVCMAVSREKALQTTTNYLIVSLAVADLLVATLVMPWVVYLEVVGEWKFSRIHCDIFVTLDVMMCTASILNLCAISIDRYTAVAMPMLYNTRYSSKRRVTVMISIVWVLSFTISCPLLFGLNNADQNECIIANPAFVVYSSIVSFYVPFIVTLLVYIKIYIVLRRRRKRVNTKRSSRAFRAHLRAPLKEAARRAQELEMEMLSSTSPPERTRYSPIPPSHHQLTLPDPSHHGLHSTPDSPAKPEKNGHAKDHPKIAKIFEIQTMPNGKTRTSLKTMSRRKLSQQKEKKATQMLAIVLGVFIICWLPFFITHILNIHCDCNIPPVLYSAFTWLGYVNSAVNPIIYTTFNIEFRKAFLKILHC
Experimental: The D2 dopamine receptor subtype was cloned substantially as described by Stormann, Gdula, Weiner and Brann, 1990 [Mol Pharmacol 37, 1-6]. Cell membranes expressing the D2 receptor were prepared by transfecting tSA cells (Chahine, M., Bennet, P. B., George, A. L., Horn, R. (1994) Pfluegers Arch. 427, 136-142) with 10 μg plasmid DNA encoding the human dopamine D2 receptor and 40 μl Superfect (Qiagen). The cells were harvested 48 hours and transfection and membranes were prepared by homogenizing the cells using a Polytron harvester in 20 mM Hepes, 10 mM EDTA, pH 7.4. The homogenate was centrifuged for 30 minutes at 37,000 g. The pellet was homogenized again in 60 ml 20 mM Hepes, 5 mM EDTA. The homogenate was centrifuged for 30 minutes at 37,000 g. The supernatant was discarded. The pellet was homogenized again in 10 ml 20 mM Hepes, 1 mM EDTA. The resultant membranes were frozen at −80° C.
The membranes were combined with 150 pM [^3H]-Spiperone (Amersham-Pharmacia, 107 Ci/mmol) and ligand concentrations between 1 nM and 10 μM, or haloperidol concentrations between 0.1 nM and 1 μM in 460 μl 20 mM Hepes, 1 mM EDTA, 0.1% (w/v) bovine serum albumin. Nonspecific binding was defined as binding in the presence of 1 μM haloperidol. The membranes were incubated for 4 hours at 37° C., and then filtered onto Packard GFB Filterplates using a Packard harvester. The membranes were dried and 50 μl Microscint (Packard) was added to each well. The amount of bound radioligand was quantified using a Packard Topcount scintillation counter.
Data were normalized relative to the maximum inhibition of [^3H]-Spiperone binding by 1 μM haloperidol, and the following equation was fitted to the data: % inhibition=minimum+(maximum−minimum)/(1+([ligand]/[IC50])) % inhibition was defined as (maximum−minimum)/(maximum response of cells to haloperidol). pIC50=−log (IC50). NT=not tested. Results

SMILES	Emax [1] [%]	EC50 [1] [µM]	Emax [2] [%]	EC50 [2] [µM]	IC50 [3] [µM]	binding efficacy for the M1 receptor subtype [1]	binding efficacy for the M4 receptor subtype [2]
CCCCC1CCN(C[C@@H](C)Cn2c(=O)sc3ccccc32)CC1 [Compound 85LM91-78R, 3-(3-(4-Butylpiperidin-1-yl)-(R)-2-methylpropyl)-3H-benzothiazol-2-one]	99	0.0316	141	0.794	0.0501		
CCCCC1CCN(CCCn2c(=O)oc3cccc(C)c32)CC1 [Compound 86KK25-a, 3-[3-(4-butylpiperidin-1-yl]propyl)-4-methyl-3H-benzooxazol-2-one]	73	0.1	36		0.631		
CCCOC1CCN(CC(C)Cn2c(=O)sc3ccccc32)CC1 (centres unmarked) [Compound 85LM49B, 3-(3-(4-Propoxy-piperidin-1-yl)-2-methyl-propyl)-3H-benzothiazol-2-one]	98	0.0251					
CCCCC1CCN(CCCn2c(=O)n(C)c3ccccc32)CC1 [Compound 45NK-110, 1-[3-(4-Butylpiperidin-1-yl)propyl]-3-methyl-1,3-dihydrobenzoimidazol-2-one]	89	0.1	61	1.26	3.16	high binding efficacy	high binding efficacy
CCCCC1CCN(CC(C)Cn2c(=O)sc3ccccc32)CC1 (centres unmarked) [Compound 85LM14, 3-(3-(4-Butyl-piperidin-1-yl)-2-methyl-propyl)-3H-benzothiazol-2-one]	104	0.0316	94	1.58	0.0794		
CCCCC=C1CCN(CCCn2c(=O)[nH]c3ccccc32)CC1 [Compound 61KS-13, 1-(3-[4-Pentylidenepiperidino]propyl)-1,3-dihydrobenzimidazole-2-one]	106	0.0398	100	0.0398	0.398	high binding efficacy	high binding efficacy
CCCCCC1CCN(CCCn2c(=O)[nH]c3ccccc32)CC1 [Compound 45NK-71, 1-[3-(4-Pentylpiperidin-1-yl)propyl]-1,3-dihydrobenzoimidazol-2-one]	71	0.1	49	0.251	0.398	high binding efficacy	high binding efficacy
CCCCC1CCN(CCCn2c(=O)oc3ccc(F)cc32)CC1 [Compound 86KK22-K, 3-[3-(4-butylpiperidin-1-yl)propyl]-5-fluoro-3H-benzooxazol-2-one]	75	0.2	56	1.26	0.631		
CCCCC1CC2CCC(C1)N2CCCn1c(=O)sc2ccccc21 (centres unmarked) [Compound 97KS96-2, 3-[3-(3-Butyl-8-aza-bicyclo[3.2.1]oct-8-yl)-propyl]-3H-benzothiazol-2-one]	63	0.0501	50		0.1		
CCCCCC1CC2CCC(C1)N2CCCn1c(=O)sc2ccccc21 (centres unmarked) [Compound 79KS97, 3-[3-(3-Pentyl-8-aza-bicyclo[3.2.1]oct-8-yl)-propyl]-3H-benzothiazol-2-one]	70	0.00631			0.1		
CCCCC1CCN(CCCn2c(=O)oc3cc(F)ccc32)CC1 [Compound 97KK28, 3-[3-(4-butylpiperidin-1-yl)propyl]-6-fluoro-3H-benzooxazol-2-one]	71	0.2			0.251		
CCCCC1CCN(CCCn2c(=O)oc3ccc(C)cc32)CC1 [Compound 86KKM25-d, 3-[3-(4-butylpiperidin-1-yl)propyl]-5-methyl-3H-benzooxazol-2-one]	84	0.1	63	0.794			
CCCCC1CCN(CCCN2C(=O)Cc3ccccc32)CC1 [Compound 85LM12, 1-(3-(4-Butylpiperidin-1-yl)propyl)-1,3-dihydro-indol-2-one]	78	0.126			0.398		
CCCC=C1CCN(CCCn2c(=O)[nH]c3ccccc32)CC1 [Compound 61KS-12, 1-(3-[4-Butylidenepiperidino]propyl)-1,3-dihydrobenzimidazol-2-one]	107	0.0316	164	0.0794	1	high binding efficacy	high binding efficacy
CC(C)CC=C1CCN(CCCn2c(=O)[nH]c3ccccc32)CC1 [Compound 45NK-70, 1-{3-[4-(3-Methylbutylidene)piperidin-1-yl]propyl}-1,3-dihydrobenzoimidazol-2-one]	70	0.0501	40	0.0794	0.631	high binding efficacy	high binding efficacy
CCCCC1CCN(CCCn2c(=O)sc3ccccc32)CC1 [Compound 62KK040d, 3-[3-(4-Butylpiperidin-1-yl)propyl]-3H-benzothiazol-2-one]	83	0.0251	93	0.398	0.0794		
CCCOC1CCN(CCCn2c(=O)sc3ccccc32)CC1 [Compound 61KS70-1, 3-[3-(4-Propoxy-piperidin-1-yl)-propyl]-3H-benzothiazol-2-one]	96	0.0794	112	0.794	0.316		
